Tested on: TLR9
Experiment: FACS analysis of FAM-labeled CpG-ODN uptake and retention
Type: cell-based
Details: for Endocytosis of CpG ODNs: 30-min treatment with labeled CpG ODNs
Method: RAW 264.7 cells were seeded into 60-mm dishes at 2 × 10^6 cells per dish. After 30 min of treatment with ETI41 or ETI60, cells were incubated with 1 μM of 3’-FAM-labeled ODN 2395 (Bioneer Inc.) for 30 min. Fluorescence intensity was measured using a NovoCyte Flow Cytometer (Agilent Technologies) and analyzed using NovoExpress software.
Fig. 3 Binding mechanism of ETI41 and ETI60 with TLR7 and TLR9. a ETI41 and ETI60 bind to the extracellular domain of TLR7. b Detailed intermolecular interactions ofETI41 and ETI60 are shown with the key residues of TLR7. c ETI41 and ETI60 bind to the extracellular domain of TLR9. d Intermolecular interactions of ETI41 and ETI60 with the key residues of TLR9. The asterisk indicates chain A of TLR7 and TLR9. ETI41 and ETI60 are depicted in ball-and-stick models. Bonds are represented by lines, with distances measured in ångström (Å) units. […] Data presented are from three independent experiments (n = 3), and statistical differences between the induced case and other cases were analyzed and verified using a one-tailed Student’s t-test (*P < 0.05, **P < 0.01, ***P < 0.001). TEXT PRINTED IN THE PICTURE: (f) ETI41: ODN-Fm (30min): Q3-1 0.00%; ODN-Fm (30min): Q3-2 0.00%; ODN-Fm (30min): Q3-3 10.75%; ODN-Fm (30min): Q3-4 89.25%; ODN-Fm (30min) → Washing → Incubation (1h): Q3-1 0.00%; ODN-Fm (30min) → Washing → Incubation (1h): Q3-2 0.00%; ODN-Fm (30min) → Washing → Incubation (1h): Q3-3 40.96%; ODN-Fm (30min) → Washing → Incubation (1h): Q3-4 59.04% | (f) ETI60: ODN-Fm (30min): Q3-1 0.00%; ODN-Fm (30min): Q3-2 0.00%; ODN-Fm (30min): Q3-3 12.80%; ODN-Fm (30min): Q3-4 87.20%; ODN-Fm (30min) → Washing → Incubation (1h): Q3-1 0.00%; ODN-Fm (30min) → Washing → Incubation (1h): Q3-2 0.00%; ODN-Fm (30min) → Washing → Incubation (1h): Q3-3 56.37%; ODN-Fm (30min) → Washing → Incubation (1h): Q3-4 43.63% DOUBTS OF THE COPYIST ABOUT THIS PICTURE: Panel f, very small print: the digits 3, 5, 6, 8 and 9 cannot be told apart with certainty in any quadrant percentage. / ETI41, ODN-Fm (30min): Q3-3 10.75% and Q3-4 89.25% are best readings / ETI60, ODN-Fm (30min): Q3-3 12.80% and Q3-4 87.20% are best readings / ETI41, Washing/Incubation (1h): Q3-3 40.96% and Q3-4 59.04% are best readings / ETI60, Washing/Incubation (1h): Q3-3 56.37% and Q3-4 43.63% are best readings / Panel f: the control plots ('Con' and '-') also print quadrant percentages. They are left out because they are not substance results.
FACS analysis further validated the binding of ETI41 and ETI60. Unmethylated CpG ODNs, acting as ligands for TLR9, were fluorescently labeled, and their cellular penetration was monitored.

Structure (SMILES) | Endocytosis of CpG ODNs | Fluorescence intensity of labeled CpG ODN after washing
Cc1cc2c(N)c3c(nc2n1CCCN(C)C)CCCCCC3 [ETI41] | did not interfere with endocytosis | reduction in fluorescence intensity
COc1ccc2c3c(N)c4c(nc3n(CCCN(C)C)c2c1)CCCC4 [ETI60] | did not interfere with endocytosis | reduction in fluorescence intensity
